Key:
[1] = test system: inflammatory cells, eosinophils, CD4+ T cells in BALF; assay: Inflammatory cell numbers in BALF by flow cytometry; assay type: in vivo, ova s/c BALB/c mice; conditions: 100 mg/kg twice daily for 5 days
Description: The change of the number of specific immune cells caused by compounds may be investigated in the bronchoalveolar lavage fluid (BALF) of Ova S/C mice. Therefore, a bronchoalveolar lavage may be carried out followed by the lysis of red blood cells. Incubation of cell-type specific antibodies with BALF may allow the quantification of leukocytes such as eosinophils and CD4^+ T-lymphocytes using flow cytometry.
Determination of anti-inflammatory properties of compounds were investigated in an allergen induced mouse model of asthma. At the day of analysis, bronchoalveolar lavage (BAL) was performed with 1 mL of Ca2+ and Mg2+ free PBS. Red blood cells (RBCs) were lysed using BD red blood cell lysis buffer (BD Pharmingen, San Jose, Calif.). BALF was split into four different tubes and non-specific binding to Fc receptors was blocked for 5 minutes using 6 μg/mL of 2.4G2 mouse BD Fc Block™ (BD Pharmingen, San Jose, Calif.). BALF cells were stained for 30 minutes at 4° C. in the dark with 100 μL BSA stain buffer (BD Pharmingen, San Jose, Calif.) containing the final concentrations of the following antibodies: anti-mouse CD45 APC (1:1000, 30-F11, Affymetrix eBiosciences, San Diego, Calif.), FITC rat anti-mouse CD4 (1:500, RM4-5, BD Pharmingen, San Jose, Calif.), PE Rat Anti-Mouse Siglec F (1:500, E50-2440, BD Pharmingen, San Jose, Calif.) and mouse CCR3 PE-conjugated antibody (1:40, 83101, R&D systems Inc, Minneapolis, Minn.). Flow cytometric studies were done using the BD FACS Calibur (BD Pharmingen, San Jose, Calif.) and data analyzed subsequently using Cell Quest pro software (BD Pharmingen, San Jose, Calif.). General gating for immune cells were followed. Total inflammatory cell count was obtained by running all samples on high (60 μL/min) for 180 seconds. The gated anti-mouse CD45 positive events in the fourth channel (FL4) were used to calculate the total inflammatory cell count as cells/mL. The frequencies of CCR3+/Siglec F were used for quantification of eosinophils and CD4+ for CD4+ T cell populations in their respective gates were multiplied by the total inflammatory cell count (cells/mL) to obtain the differential cell population. Statistical analysis: Data were analyzed using GraphPad Prism 4 (GraphPad Software, San Diego, Calif.) and expressed as mean±SEM. One-way analysis of variance (ANOVA) with Dunnet post hoc test or two-way ANOVA with Bonferroni post hoc test were performed for statistical difference for multiple groups. FIGS. 7A-7C show effects of compounds on inflammatory cells. Groups of 10 ova s/c BALB/c mice were administered compounds at 100 mg/kg twice daily for 5 days. BALF was harvested from each animal and used for (A) quantification of total inflammatory cells; (B) eosinophils; (C) CD4^+ T cells. Cells were stained with mouse CD45^+ APC antibody, and samples were analyzed with BD FACS Calibur on high flow rate (60 μl/minute) for 180 seconds. The gated positive events in the fourth channel (FL4) were used to calculate the total inflammatory cell count as cells/ml. Quantification of specific leukocyte population (B) eosinophils (C) CD4^+ T cell populations were stained with specific antibodies and detected by flow cytometry. Data represent mean±SEM from 10 mice in each group. *, **, and *** indicate p<0.05, p<0.01, and p<0.001 significance, respectively, compared to vehicle treated ova s/c BALB/c mice.

lung cells = assay: Lung cell proliferation by EdU incorporation; assay type: in vivo; conditions: Ova s/c mice, treated versus non-treated
Description: ASM hyperplasia was determined by incooperation of EdU into the DNA of newly formed cells. Herein, at the end of the ovalbumin sensitization and challenge protocol, mice received a single i.p. injection of EdU (Invitrogen, Carlsbad, Calif.) at a dose of 100 mg/kg. Mice were euthanized 4 hours after injection and the lungs formalin fixed, harvested and paraffin embedded. 6 μm sections of formalin fixed and paraffin embedded lung sections were mounted onto Fisher Superfrost Plus Slides. EdU staining was conducted using Click-iT™ EdU imaging kit (Invitrogen, Carlsbad, Calif.) according to manufacturer's instructions. Briefly lungs were deparaffinized in histoclear and rehydrated in graded ethanol. Tissue sections were washed twice with 3% bovine serum albumin (BSA) in PBS and permeablized with 0.5% Triton X-100 in PBS for 20 minutes. The sections were again washed twice with 3% BSA in PBS and then incubated with a Click-iT™ reaction cocktail containing Click-iT™ reaction buffer, CuSO4, Alexa Fluor® 488 Azide, and reaction buffer additive for 30 minutes in the dark. […] Lung sections of non-treated and GL-II-93 treated Ova s/c mice were analyzed for the incooperation of EdU, a thymidine analog that can be visualized after click chemistry with a fluorescent azide. For the negative control EdU was not injected resulting in no visible fluorescence. […]

IL-17, TNFα, IL-4 = assay: Lung cytokine levels by cytometric bead array; assay type: in vivo; conditions: ova s/c mice
Description: The change of cytokine expression caused by compounds may be investigated in the lung of Ova S/C mice. Therefore, lungs of treated and non-treated asthmatic mice may be harvested, homogenized and cleared by centrifugation. Cytokines may be identified and quantified with specific antibodies and flow cytometry.
Anti-inflammatory properties of compounds in respect to cytokine production were investigated after the AHR measurement by harvesting the lungs of treated and non-treated Ova S/C mice (N=10). Whole lungs were homogenized in 200 μL of T-PER® tissue protein extraction reagent (Thermo Fisher Scientific Inc., Rockford, Ill.) containing 1× protease inhibitor cocktail using a hand-held tissue homogenizer. Homogenized lung samples were centrifuged at 10,000 RPM for 5 minutes to pellet cell/tissue debris. Tissue supernatant was collected for cytokine analysis using BD cytometric bead array mouse Th1/Th2/Th17 cytokine kit (BD Biosciences, San Jose, Calif.) following manufacturer's instruction. Data were analyzed using GraphPad Prism 4 (GraphPad Software, San Diego, Calif.) and expressed as mean±SEM. One-way analysis of variance (ANOVA) with Dunnet post hoc test was performed for statistical difference for multiple groups. […] Data represent mean±SEM from 10 mice in each group. *, **, and *** indicate p<0.05, p<0.01, and p<0.001 significance. The ova s/c mice expressed higher levels of IFN-γ, IL-6, and IL-2 but the change was not significant in comparison to normal mice.

[2] = test system: α1β3γ2 or α4β3γ2 GABAAR expressing HEK293T cells; assay: Automated patch clamp with EC20 GABA in HEK293T cells; assay type: cell-based; conditions: GABA EC20, 3 seconds application

Structure (SMILES) | numbers of CD4+ T cells [1] | numbers of eosinophils [1] | proliferation of lung cells (EdU) (lung cells) | level of IL-4 in the mouse lung (IL-17, TNFα, IL-4) | level of IL-17 in the mouse lung (IL-17, TNFα, IL-4) | level of TNFα in the mouse lung (IL-17, TNFα, IL-4) | GABAA receptor subtype selectivity, current response [2] | numbers of inflammatory cells in BALF [1]
C[C@H]1N=C(c2ccccc2F)c2cc(Br)ccc2-n2cnc(C(=O)O)c21 [GL-II-93, (R)-8-bromo-6-(2-fluorophenyl)-4-methyl-4H-benzo[f]imidazo[1,5-a][1,4]diazepine-3-carboxylic acid] | did reduce the numbers of eosinophils and CD4^+ T cells | did reduce the numbers of eosinophils | Non-treated Ova S/C mice showed a high proliferation rate in comparison to GL-II-93 treated animals | reduced the levels of IL-17, TNFα, and IL-4 | reduced the levels of IL-17 | reduced the levels of IL-17, TNFα | – | –
CCOC(=O)c1ncn2c1[C@@H]1CCCN1C(=O)c1cc(O)ccc1-2 [RJ-02-50, ethyl (S)-7-hydroxy-9-oxo-11,12,13,13a-tetrahydro-9H-benzo[e]imidazo[5,1-c]pyrrolo[1,2-a][1,4]diazepine-1-carboxylate] | did reduce the numbers of eosinophils and CD4^+ T cells | did reduce the numbers of eosinophils | – | – | – | – | positive α4β3γ2-selective GABAA receptor modulator | –
O=C1c2cc(O)ccc2-n2cnc(-c3cnco3)c2[C@@H]2CCCN12 [RJ-03-30, (S)-7-hydroxy-1-(oxazol-5-yl)-11,12,13,13a-tetrahydro-9H-benzo[e]imidazo[5,1-c]pyrrolo[1,2-a][1,4]diazepin-9-one] | – | – | – | – | – | – | – | did not modulate the numbers of inflammatory cells
C#Cc1ccc2c(c1)C(c1ccccc1F)=N[C@H](C)c1c(C(=O)O)ncn1-2 [SH-053-2′F-R-CH3-Acid, (R)-8-ethynyl-6-(2-fluorophenyl)-4-methyl-4H-benzo[f]imidazo[1,5-a][1,4]diazepine-3-carboxylic acid] | but not CD4^+ T cells | reduced the numbers of eosinophils | – | – | – | – | – | –

Source: patent US11447495B2, “Substituted benzo[f]imidazo[1,5-a][1,4]diazepines as GABA(a) receptor modulators” (priority 2016, dated 2022)
